According to US6727237B2, “Inhibitors of bacterial NAD synthetase” (priority 1998, dated 2004):

target: T1, bacterial NAD synthetase enzyme (Bacillus subtilis, UniProt P08164); assay: biochemical; assay type: biochemical; conditions: compound at 0.1 mM (Table 314)
T1 sequence (P08164 2-272 limits assumed): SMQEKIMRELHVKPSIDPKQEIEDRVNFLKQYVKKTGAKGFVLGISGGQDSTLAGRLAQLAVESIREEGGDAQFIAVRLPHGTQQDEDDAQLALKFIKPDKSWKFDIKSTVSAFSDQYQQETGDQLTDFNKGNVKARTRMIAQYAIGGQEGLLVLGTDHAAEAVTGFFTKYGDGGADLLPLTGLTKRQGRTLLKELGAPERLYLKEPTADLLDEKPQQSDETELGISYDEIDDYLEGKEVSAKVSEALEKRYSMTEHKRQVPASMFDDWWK

Compound	% Inhibition [%]
FC(F)(F)c1ccc2[nH]c(CCCC[n+]3ccccc3)cc2c1 [Compound 361]	16.08

same assay, conditions: compound at 0.2 mM (Table 312A)

Compound	% Inhibition [%]
Fc1cc(F)c2[nH]c(CCCCCC[n+]3cccc4ccccc43)cc2c1 [Compound 411]	8.84
Fc1ccc2[nH]c(CCCCC[n+]3cccc4ccccc43)cc2c1 [Compound 452]	20.04
CC(C)c1ccc2[nH]c(CCCCCC[n+]3ccc4ccccc4c3)cc2c1 [Compound 537]	10.69
COC(=O)c1ccc2[nH]c(CCCCCCCC[n+]3ccc4ccccc4c3)cc2c1 [Compound 599]	19.31
COC(=O)c1ccc2c(ccn2CCCCCCCCC[n+]2ccccc2)c1 [Compound 166]	87.68
O=C(c1ccccc1)c1ccc2[nH]c(CCC[n+]3cccc4ccccc43)cc2c1 [Compound 462]	3.84

tested on: Staphylococcus epidermitis; assay: Bacterial growth inhibition screen in LB media (absorbance 595 nm), percent inhibition; conditions: S. epidermitis; concentration screened 10 uM

Compound	% Inhibition [%]
Fc1cc(F)c2[nH]c(CCCCCC[n+]3cccc4ccccc43)cc2c1 [Compound 411]	15.74
Fc1ccc2[nH]c(CCCCC[n+]3cccc4ccccc43)cc2c1 [Compound 452]	8.22
CC(C)c1ccc2[nH]c(CCCCCC[n+]3ccc4ccccc4c3)cc2c1 [Compound 537]	5.43
FC(F)(F)c1ccc2[nH]c(CCCC[n+]3ccccc3)cc2c1 [Compound 361]	5.57
COC(=O)c1ccc2c(ccn2CCCCCCCCC[n+]2ccccc2)c1 [Compound 166]	21.66
O=C(c1ccccc1)c1ccc2[nH]c(CCC[n+]3cccc4ccccc43)cc2c1 [Compound 462]	3.13
c1ccc2[nH]c(CCC[n+]3cccc4ccccc43)cc2c1 [Compound 390]	5.92
CC(=O)c1ccc2[nH]c(CCCCOC(=O)c3cccnc3)cc2c1 [Compound 690]	10.01
O=C(OCCCCCCCCc1cc2cc([N+](=O)[O-])ccc2[nH]1)C(c1ccccc1)c1ccccc1 [Compound 726]	16.76
C[N+](C)(C)c1cccc(C(=O)OCCCCn2ccc3cc(OCc4ccccc4)ccc32)c1 [Compound 805]	50.87
O=C(OCCCCCCCCc1cc2ccc(C(F)(F)F)cc2[nH]1)c1cccnc1 [Compound 683]	9.26
CN(C)c1ccc(C(=O)OCCCCCCCCc2cc3cc([N+](=O)[O-])ccc3[nH]2)cc1 [Compound 727]	42.23
CN(C)c1cccc(C(=O)OCCCCCCCc2cc3cc(C(=O)c4ccccc4)ccc3[nH]2)c1 [Compound 643]	15.46
O=C(OCCCn1ccc2cc([N+](=O)[O-])ccc21)c1cccnc1 [Compound 855]	49.58
CC(C)c1ccc2[nH]c(CCCCCCCOC(=O)c3cccc(N(C)C)c3)cc2c1 [Compound 625]	7.77
O=C([O-])c1ccc[n+](CCCn2c(C(=O)O)cc3ccccc32)c1 [Compound 191]	46.32
COc1ccc2c(ccn2CCCCOC(=O)c2cc3ccccc3[n+](C)c2)c1 [Compound 820]	65.74
CC(C)c1ccc2[nH]c(CCCCOC(=O)c3cccnc3)cc2c1 [Compound 687]	14.44
CC(=O)c1ccc2[nH]c(CCCCCCCOC(=O)c3ccncc3)cc2c1 [Compound 706]	6.68
C[n+]1cc(C(=O)OCCCCCCCCn2ccc3cc(OCc4ccccc4)ccc32)cc2ccccc21 [Compound 829]	98.64

Compound	% Inhibition [%]
COc1ccc2c(ccn2CCCCOC(=O)c2ccc([N+](C)(C)C)cc2)c1 [Compound 780]	4.78
O=C(OCCCCCCCCc1cc2cc([N+](=O)[O-])ccc2[nH]1)c1ccccc1-c1ccccc1 [Compound 729]	8.24
CC(=O)c1ccc2[nH]c(CCCCCCCOC(=O)c3cccc(N(C)C)c3)cc2c1 [Compound 634]	10.08
O=C(OCCCCCCCc1cc2cc(C(F)(F)F)ccc2[nH]1)c1ccccc1-c1ccccc1 [Compound 613]	1.36
CC(C)c1ccc2[nH]c(CCCCCCCOC(=O)C(c3ccccc3)c3ccccc3)cc2c1 [Compound 664]	3.88
O=C(OCCCCCCCc1cc2cc(Oc3ccccc3)ccc2[nH]1)c1ccccc1-c1ccccc1 [Compound 622]	7.97
O=C(OCCCCCCCc1cc2cc(C(F)(F)F)ccc2[nH]1)c1cccnc1 [Compound 655]	11.51
COC(=O)c1ccc2c(ccn2CCC[n+]2cccc(C(=O)OC)c2)c1 [Compound 171]	15.33
CC(=O)c1ccc2[nH]c(CCCCCCCCOC(=O)c3ccncc3)cc2c1 [Compound 707]	3.61
CN(C)c1ccc(C(=O)OCCCCCCCc2cc3cc(C(F)(F)F)ccc3[nH]2)cc1 [Compound 610]	33.51
c1ccc(Oc2ccc3[nH]c(CCCCC[n+]4ccccc4)cc3c2)cc1 [Compound 350]	7.59
O=C(OCCCCCCCCc1cc2cc(C(=O)c3ccccc3)ccc2[nH]1)c1ccncc1 [Compound 710]	6.95
O=C(OCCCCc1cc2cc(C(=O)c3ccccc3)ccc2[nH]1)c1cccnc1 [Compound 693]	14.37
O=C(OCCCCCCCCc1cc2cc(C(=O)c3ccccc3)ccc2[nH]1)c1cccnc1 [Compound 680]	22.48
C[n+]1cccc(C(=O)OCCCCCCCCCc2cc3cc([N+](=O)[O-])ccc3[nH]2)c1 [Compound 281]	84.23
O=C(OCCCCCCCc1cc2cc(C(=O)c3ccccc3)ccc2[nH]1)c1cccnc1 [Compound 694]	2.59
O=C(OCCCCn1ccc2cc([N+](=O)[O-])ccc21)c1cnc2ccccc2c1 [Compound 830]	42.99
FC(F)(F)c1ccc2[nH]c(CCCCCC[n+]3cccc4ccccc43)cc2c1 [Compound 471]	14.07
O=C(OCCCCCCCCc1cc2cc(C(F)(F)F)ccc2[nH]1)c1cccnc1 [Compound 656]	2.59

same assay, conditions: S. epidermitis; concentration screened 100 uM

Compound	% Inhibition [%]
COC(=O)c1ccc2[nH]c(CCCCCCCC[n+]3ccc4ccccc4c3)cc2c1 [Compound 599]	44.14
O=C(OCCCCc1cc2cc(C(F)(F)F)ccc2[nH]1)C(c1ccccc1)c1ccccc1 [Compound 651]	13.51
O=C(OCCCCc1cc2cc(Oc3ccccc3)ccc2[nH]1)c1ccccc1-c1ccccc1 [Compound 621]	11.75
CC(C)c1ccc2[nH]c(CCCCCCCCOC(=O)c3cccc(N(C)C)c3)cc2c1 [Compound 626]	14.26
CC(C)c1ccc2[nH]c(CCCCCCCCOC(=O)C(c3ccccc3)c3ccccc3)cc2c1 [Compound 665]	12.75
CC(=O)c1ccc2[nH]c(CCCCCCCCOC(=O)C(c3ccccc3)c3ccccc3)cc2c1 [Compound 671]	5.72
CN(C)c1ccc(C(=O)OCCCCc2cc3cc(Oc4ccccc4)ccc3[nH]2)cc1 [Compound 618]	11.06
CN(C)c1cccc(C(=O)OCCCCc2cc3cc(Oc4ccccc4)ccc3[nH]2)c1 [Compound 615]	11.81
CC(=O)c1ccc2[nH]c(CCCCCCCCOC(=O)c3ccccc3-c3ccccc3)cc2c1 [Compound 641]	8.10
CC(=O)c1ccc2[nH]c(CCCCCCCCOC(=O)c3cccc(N(C)C)c3)cc2c1 [Compound 635]	7.47
CN(C)c1cccc(C(=O)OCCCCc2cc3cc(C(=O)c4ccccc4)ccc3[nH]2)c1 [Compound 642]	8.86
CC(=O)c1ccc2[nH]c(CCCCOC(=O)c3cccc(N(C)C)c3)cc2c1 [Compound 633]	5.53
CN(C)c1ccc(C(=O)OCCCCCCCCc2cc3cc(C(=O)c4ccccc4)ccc3[nH]2)cc1 [Compound 647]	13.38
CC(C)c1ccc2[nH]c(CCCCCCCCOC(=O)c3ccccc3-c3ccccc3)cc2c1 [Compound 632]	22.42
O=C(c1ccccc1)c1ccc2[nH]c(CCCCOC(=O)C(c3ccccc3)c3ccccc3)cc2c1 [Compound 675]	11.37
